Data as given in the supplement of paper PMC11061612.

Tests used:
[1] = system: OVCAR-5 (Ovarian Carcinoma); test: Bliss excess, mean over the matrix (fraction); higher = more synergy
Method in brief: (§1)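 After 24 hours at 37°C and 5% CO2 in 1536-well plates, cells in DMEM/F12 or RPMI plus 10% FBS received two-drug dose matrices for 72 hours. Viability came from CellTiter-Glo 2.0 luminescence and was scaled as inhibition, anchored at 0 by vehicle wells and at 1 by blank wells. Combination Emax is taken as the second-highest inhibition in the matrix, and Bliss excess as the observed combination effect less EA + EB − EA·EB, with EA and EB the single-agent effects.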

NCI-H2052 (Mesothelioma) [2] = test: as above
Method in brief: as §1

[3] = system: LS-123 (Colorectal Carcinoma); test: as above
Method in brief: as §1

[4] = system: MHH-CALL-2 (B-Lymphoblastic Leukemia); test: as above
Method in brief: as §1

[5] = system: KYAE-1 (Esophageal Adenocarcinoma); test: as above
Method in brief: as §1

NCI-H2052 (Mesothelioma) [6] = test: combination Emax (second highest fraction inhibited in the dose matrix, 72 h); higher = more inhibition; extreme values may be limits of the assay
Method in brief: as §1

[7] = system: ALL-PO (B-Lymphoblastic Leukemia); test: as above
Method in brief: as §1

[8] = system: HeLa (Cervical Carcinoma); test: as above
Method in brief: as §1

KS-1 (Glioblastoma) = test: as above
Method in brief: as §1

[9] = system: HuCCT1 (Biliary Tract Carcinoma); test: as above
Method in brief: as §1

EW-11 (Ewing's Sarcoma) = test: as above
Method in brief: as §1

[10] = system: NUGC-4 (Gastric Carcinoma); test: as above
Method in brief: as §1

[11] = system: Detroit562 (Head and Neck Carcinoma); test: as above
Method in brief: as §1

[12] = system: MHH-CALL-2 (B-Lymphoblastic Leukemia); test: as above
Method in brief: as §1

[13] = system: BE-13 (T-Lymphoblastic Leukemia); test: as above
Method in brief: as §1

[14] = system: SNU-449 (Hepatocellular Carcinoma); test: as above
Method in brief: as §1

[15] = system: KYAE-1 (Esophageal Adenocarcinoma); test: as above
Method in brief: as §1

[16] = system: FTC-133 (Thyroid Gland Carcinoma); test: as above
Method in brief: as §1

[17] = system: BFTC-909 (Kidney Carcinoma); test: as above
Method in brief: as §1

[18] = system: SNU-16 (Gastric Carcinoma); test: as above
Method in brief: as §1
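For Bliss excess, mean over the matrix in this document: after 72 h of two-drug dosing.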

SMILES | Bliss excess [1] | Bliss excess (NCI-H2052 (Mesothelioma) [2]) | Bliss excess [3] | Bliss excess [4] | Bliss excess [5] | combination Emax (NCI-H2052 (Mesothelioma) [6]) | combination Emax [7] | combination Emax [8] | combination Emax (KS-1 (Glioblastoma)) | combination Emax [9] | combination Emax (EW-11 (Ewing's Sarcoma)) | combination Emax [10] | combination Emax [11] | combination Emax [12] | combination Emax [13] | combination Emax [14] | combination Emax [15] | combination Emax [16] | combination Emax [17] | combination Emax [18]
NC1(C(=O)N[C@@H](CCO)c2ccc(Cl)cc2)CCN(c2ncnc3[nH]ccc23)CC1 [Capivasertib] + C[C@@H]1COCCN1C2=NC(=NC(=C2)C3(CC3)[S@](=N)(=O)C)C4=C5C=CNC5=NC=C4 [AZD6738] (first compound max 10 µM, 7x7, partner max 10 µM) | -0.0357 | -0.0657 | 0.0058 | -0.0076 | 0.0014 | 0.57 | 0.99 | 0.518 | 0.653 | 0.688 | 0.753 | 0.469 | 0.918 | 0.954 | 0.731 | 0.262 | 0.165 | 0.802 | 0.869 | 0.973
CC1(C)CCC(CN2CCN(c3ccc(C(=O)NS(=O)(=O)c4ccc(NCC5CCOCC5)c([N+](=O)[O-])c4)c(Oc4cnc5[nH]ccc5c4)c3)CC2)=C(c2ccc(Cl)cc2)C1 [Venetoclax] + C[C@@H]1COCCN1C2=NC(=NC(=C2)C3(CC3)[S@](=N)(=O)C)C4=C5C=CNC5=NC=C4 [AZD6738] (first compound max 1 µM, 7x7, partner max 10 µM) | -0.0717 | -0.0406 | -0.0395 | -0.0357 | -0.0387 | 0.431 | 1 | 0.563 | 0.57 | 0.664 | 0.781 | 0.534 | 0.829 | 0.863 | 0.936 | 0.26 | 0.121 | 0.779 | 0.853 | 0.973
Cn1cnc2c(F)c(Nc3ccc(Br)cc3Cl)c(C(=O)NOCCO)cc21 [Selumetinib] + C=CCn1c(=O)c2cnc(Nc3ccc(N4CCN(C)CC4)cc3)nc2n1-c1cccc(C(C)(C)O)n1 [AZD1775] (first compound max 10 µM, partner max 1 µM) | -0.0074 | -0.0747 | 0.0099 | -0.0087 | -0.0019 | 0.284 | 0.978 | 0.437 | 0.277 | 0.793 | 0.42 | 0.526 | 0.639 | 0.793 | 1 | 0.129 | 0.116 | 0.778 | 0.646 | 0.802
CC1(C)CCC(CN2CCN(c3ccc(C(=O)NS(=O)(=O)c4ccc(NCC5CCOCC5)c([N+](=O)[O-])c4)c(Oc4cnc5[nH]ccc5c4)c3)CC2)=C(c2ccc(Cl)cc2)C1 [Venetoclax] + CN(C)CCCOc1ccc(-c2ccc3ncc4c(c3c2)n(C2CCOCC2)c(=O)n4C)cn1 [AZD0156] (first compound max 1 µM, 7x7, partner max 1 µM) | -0.0195 | -0.0184 | -0.0169 | 0.0128 | -0.0166 | 0.235 | 0.516 | 0.188 | 0.224 | 0.231 | 0.69 | 0.166 | 0.212 | 0.153 | 0.612 | 0.243 | 0.115 | 0.167 | 0.144 | 0.152
NC1(C(=O)N[C@@H](CCO)c2ccc(Cl)cc2)CCN(c2ncnc3[nH]ccc23)CC1 [Capivasertib] + COc1nnc2ccc(N3CCC(c4ccc(OCCN5CCN(C)C(=O)[C@H]5C)cc4)CC3)nn12 [AZD5153] (first compound max 10 µM, 7x7, partner max 1 µM) | 0.0138 | 0.0133 | 0.0517 | -0.03 | 0.0352 | 0.427 | 0.9 | 0.423 | 0.755 | 0.609 | 0.948 | 0.542 | 0.925 | 0.338 | 0.644 | 0.224 | 0.223 | 0.73 | 0.678 | 0.854
CC1(C)CCC(CN2CCN(c3ccc(C(=O)NS(=O)(=O)c4ccc(NCC5CCOCC5)c([N+](=O)[O-])c4)c(Oc4cnc5[nH]ccc5c4)c3)CC2)=C(c2ccc(Cl)cc2)C1 [Venetoclax] + Cn1cnc2c(F)c(Nc3ccc(Br)cc3Cl)c(C(=O)NOCCO)cc21 [Selumetinib] (first compound max 1 µM, 7x7, partner max 3 µM) | -0.069 | -0.0126 | -0.0512 | 0.0653 | -0.028 | 0.213 | 0.538 | 0.103 | 0.261 | 0.38 | 0.451 | 0.499 | 0.321 | 0.482 | 0.461 | 0.109 | 0.0726 | 0.133 | 0.23 | 0.241
Cn1cnc2c(F)c(Nc3ccc(Br)cc3Cl)c(C(=O)NOCCO)cc21 [Selumetinib] + CC(C)n1c(=O)n(C)c2cnc3cc(F)c(-c4ccc(OCCCN5CCCCC5)nc4)cc3c21 [AZD1390] (first compound max 10 µM, 7x7, partner max 0.3 µM) | 0.0017 | -0.0242 | 0.0194 | 0.0042 | -0.026 | 0.193 | 0.301 | 0.0672 | 0.197 | 0.517 | 0.103 | 0.481 | 0.367 | 0.256 | 0.179 | 0.16 | 0.144 | 0.166 | 0.184 | 0.36
NC1(C(=O)N[C@@H](CCO)c2ccc(Cl)cc2)CCN(c2ncnc3[nH]ccc23)CC1 [Capivasertib] + CC(=O)c1c(C)c2cnc(Nc3ccc(N4CCNCC4)cn3)nc2n(C2CCCC2)c1=O [Palbociclib] (first compound max 10 µM, 7x7, partner max 10 µM) | -0.0396 | -0.0171 | -0.0026 | -0.0739 | -0.0168 | 0.419 | 0.688 | 0.196 | 0.5 | 0.43 | 0.496 | 0.305 | 0.783 | 0.216 | 0.507 | 0.379 | 0.162 | 0.565 | 0.704 | 0.623
COc1nnc2ccc(N3CCC(c4ccc(OCCN5CCN(C)C(=O)[C@H]5C)cc4)CC3)nn12 [AZD5153] + CC1(C)CCC(CN2CCN(c3ccc(C(=O)NS(=O)(=O)c4ccc(NCC5CCOCC5)c([N+](=O)[O-])c4)c(Oc4cnc5[nH]ccc5c4)c3)CC2)=C(c2ccc(Cl)cc2)C1 [Venetoclax] (first compound max 1 µM, 7x7, partner max 1 µM) | -0.052 | -0.0748 | 0.0205 | -0.0292 | -0.0171 | 0.359 | 0.889 | 0.433 | 0.649 | 0.511 | 0.457 | 0.567 | 0.8 | 0.429 | 0.708 | 0.252 | 0.0501 | 0.578 | 0.496 | 0.731
CC(=O)c1c(C)c2cnc(Nc3ccc(N4CCNCC4)cn3)nc2n(C2CCCC2)c1=O [Palbociclib] + Cn1cnc2c(F)c(Nc3ccc(Br)cc3Cl)c(C(=O)NOCCO)cc21 [Selumetinib] (first compound max 10 µM, 7x7, partner max 10 µM) | -0.0041 | -0.0124 | 0.002 | -0.0407 | -0.0125 | 0.189 | 0.697 | 0.104 | 0.438 | 0.556 | 0.168 | 0.392 | 0.588 | 0.31 | 0.691 | 0.338 | 0.124 | 0.202 | 0.358 | 0.771
Cc1c2c(nn1C)CSCc1cc(n(C)n1)CSc1cc(c3ccccc3c1)OCCCc1c(C(=O)O)n(C)c3c-2c(Cl)ccc13 [AZD5991] + Cn1cnc2c(F)c(Nc3ccc(Br)cc3Cl)c(C(=O)NOCCO)cc21 [Selumetinib] (first compound max 1 µM, 7x7, partner max 3 µM) | -0.0349 | 0.0301 | 0.0196 | 0.111 | -0.0155 | 0.314 | 1 | 0.496 | 0.31 | 0.508 | 0.76 | 0.616 | 0.365 | 1 | 0.449 | 0.246 | 0.163 | 0.738 | 0.3 | 0.989
CC(=O)c1c(C)c2cnc(Nc3ccc(N4CCNCC4)cn3)nc2n(C2CCCC2)c1=O [Palbociclib] + Cc1c2c(nn1C)CSCc1cc(n(C)n1)CSc1cc(c3ccccc3c1)OCCCc1c(C(=O)O)n(C)c3c-2c(Cl)ccc13 [AZD5991] (first compound max 10 µM, 7x7, partner max 1 µM) | -0.0406 | -0.0298 | -0.0376 | -0.0451 | 0.0035 | 0.304 | 1 | 0.39 | 0.266 | 0.32 | 0.605 | 0.252 | 0.569 | 0.998 | 0.815 | 0.335 | 0.126 | 0.18 | 0.406 | 0.973
NC1(C(=O)N[C@@H](CCO)c2ccc(Cl)cc2)CCN(c2ncnc3[nH]ccc23)CC1 [Capivasertib] + CC(C)n1c(=O)n(C)c2cnc3cc(F)c(-c4ccc(OCCCN5CCCCC5)nc4)cc3c21 [AZD1390] (first compound max 10 µM, 7x7, partner max 0.3 µM) | -0.0829 | -0.095 | -0.0493 | -0.0439 | -0.0081 | 0.407 | 0.521 | 0.199 | 0.323 | 0.24 | 0.511 | 0.145 | 0.599 | 0.231 | 0.296 | 0.174 | 0.109 | 0.582 | 0.622 | 0.225
